Test results as given in paper PMC4977052, “On the Utility of ToxCast™ and ToxPi as Methods for Identifying New Obesogens” (Environmental Health Perspectives, 2016).
pEC50: −log10 of the molar value. Like-named read-outs stand apart in the source and are kept apart here.

Columns and labels:
3T3-L1 preadipocytes = experiment: 3T3-L1 adipogenesis assay (lipid accumulation, adipogenic gene expression); format: cell-based; conditions: 0.02-20 μM, 5 days after MDI induction
Summary of the method: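 After 2-day MDI induction with biotin and pantothenate, 3T3-L1 cells were treated 5 days with chemicals at 0.02–20 μM (0.1% DMSO; 10 μM if toxic). Lipid read as Nile red/Hoechst fluorescence ratio; adipogenic genes by QPCR, 2^ΔΔCt versus 36b4, normalized to DMSO.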

RXRα [1] = conditions: cited from earlier work
RXRα [2] = conditions: ref Filer et al. 2014, cited from earlier work
PPARγ = conditions: ToxCast Phase I 2011 release; NA = not active; ref Knudsen et al. 2011; read-out: ATGT PPARγ AC50; cited from earlier work
GAL4-hRXRα = target: T1, GAL4-hRXRα (Homo sapiens, UniProt P19793); experiment: GAL4-hRXRα activation, transient transfection luciferase reporter in COS7 cells; format: cell-based
T1 construct: expressed in transfected cells; host or cells: COS7
T1 sequence (P19793 with tags, fused parts or gaps limits assumed): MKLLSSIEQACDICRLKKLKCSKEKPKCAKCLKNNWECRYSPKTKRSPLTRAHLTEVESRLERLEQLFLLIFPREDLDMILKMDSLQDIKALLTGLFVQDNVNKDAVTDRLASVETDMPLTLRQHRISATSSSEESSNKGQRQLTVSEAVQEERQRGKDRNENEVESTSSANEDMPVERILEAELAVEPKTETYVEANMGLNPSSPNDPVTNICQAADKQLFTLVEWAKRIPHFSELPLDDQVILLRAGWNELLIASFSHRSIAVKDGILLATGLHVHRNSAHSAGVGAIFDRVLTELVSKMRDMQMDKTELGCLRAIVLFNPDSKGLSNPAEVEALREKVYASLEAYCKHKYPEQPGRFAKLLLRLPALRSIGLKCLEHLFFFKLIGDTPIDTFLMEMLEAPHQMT
Protocol: pCMX-Gal4, pCMX-Gal4-mPPARγ, and pCMX-Gal4-hRXRα were previously described ([Grün et al. 2006]). Transient transfections were performed in COS7 cells as described ([Chamorro-García et al. 2012]). Briefly, COS7 cells were seeded at 15,000 cells per well in 96-well tissue culture plates in 10% calf bovine serum. The following day, cells were transfected in Opti-MEM at ~ 90% confluency. One microgram of CMX-GAL4 effector plasmid was co-transfected with 5 μg tk-(MH100)4-luciferase reporter and 5 μg of CMX-β-galactosidase transfection control plasmids in Opti-MEM® using Lipofectamine® 2000 reagent (Invitrogen™ Life Technologies, Carlsbad, CA, USA), following the manufacturer’s recommended protocol. All chemicals were solvated in dimethyl sulfoxide (DMSO). After overnight incubation, the medium was replaced with Dulbecco’s Modified Eagle Medium (DMEM; HyClone, Logan, UT, USA), 10% resin charcoal stripped fetal bovine serum (FBS) plus ligands at concentrations indicated in the figure legends for an additional 24 hr. DMSO concentration was maintained at 0.05% across all chemical treatments. Cells were lysed and assayed for luciferase and β-galactosidase activity as previously described ([Forman et al. 1995]). All transfections were performed in triplicate and reproduced in multiple experiments. Data are reported as fold induction or reduction over vehicle ([…]) controls ± SEM (standard error of the mean) using standard propagation of error ([Bevington and Robinson 2003]). […] The EC50, EC10, IC50, and IC10 values from NCGC and ToxCast™ are reported from gain AC50 and AC10 values in the ToxCast™ 2014 release ([Filer et al. 2014]).
Figure 4 ToxPi Chemical Activity on PPARγ and RXRα. The ability of a graded dose series of ToxPi chemicals to activate (A) GAL4-mPPARγ or (B) GAL4-hRXRα was tested in transiently transfected COS7 cells. (A, B) Data points are averages of triplicate transfections (three biological replicates). […] ToxPi chemicals were tested in 3-fold serial dilutions from 100 μM through 0.137 μM, with the final data point being 0.05% DMSO. Data are depicted as fold induction over vehicle (0.05% DMSO) controls ± SEM. (A) Rosiglitazone serves as a positive control activator for GAL4-mPPARγ. (B) LG100268 (2-[1-(3,5,5,8,8-Pentamethyl-5,6,7,8-tetrahydro-2-naphthyl)cyclopropyl]pyridine-5-carboxylic acid) serves as a positive control activator for GAL4-hRXRα. (C) EC50 and EC10 values calculated from A and B are reported and compared to other assays (see Figure S1). ATG, Attagene GAL-PPARγ or GAL-RXRα activation assay; NCGC, GeneBLAzer® GAL-PPARγ or GAL-RXRα activation assays. Triphenyltin was previously published ([Kanayama et al. 2005]).

C/EBP = test system: C/EBP; set-up: method as in Knudsen et al. 2011; conditions: ToxCast Phase I 2011 release; NA = not active; ref Knudsen et al. 2011; read-out: ATGC CEBP AC50; cited from earlier work
PPRE = test system: PPRE; set-up: method as in Knudsen et al. 2011; conditions: ToxCast Phase I 2011 release; NA = not active; ref Knudsen et al. 2011; read-out: ATGC PPRE AC50; cited from earlier work
[3] = test system: mouse bone marrow-derived mesenchymal stem cells (mBMSCs); format: cell-based; conditions: 14 days, Figure 7
Protocol: A total of 8 × 10^4 cells/well mouse bone marrow-derived mesenchymal stem cells (mBMSCs) (OriCell™) were seeded in 12-well plates in basic medium: high-glucose DMEM (Hyclone) containing 10% calf bovine serum (Premium Select, Atlanta Biologicals), 100 IU/mL penicillin, 100 μg/mL streptomycin, and 1 mM sodium pyruvate. mBMSCs were induced to differentiate in differentiation media (low glucose αMEM containing 15% fetal bovine serum (Premium Select, Atlanta Biologicals), 100 IU/mL penicillin, 100 μg/mL streptomycin and 2 mM L-glutamine) with adipogenic cocktail (500 μM isometylbutylxanthine, 1 μM dexamethasone, 5 μg/mL insulin) and either 500 nM ROSI, 50 nM TBT or ToxCast™ chemicals (as noted for 3T3-L1 cells) for 14 days, replacing the media every 3 days.
Cells were either fixed in 3.7% formaldehyde in phosphate-buffered saline (PBS) for 30 min at room temperature (RT) for lipid quantitation, or homogenized in TriPure (Roche, Mannheim, Germany) for gene expression analysis. For lipid quantitation, fixed cells were washed twice with PBS and maintained in PBS overnight at 4°C to release residual phenol red. Background of cells were measured prior to staining. Cells were stained with 1 μg/mL Nile red (CAS No. 7385-67-3) (to detect lipid accumulation) and 1 μg/mL Hoechst 33342 (ThermoFisher Scientific) (to detect nuclei as a surrogate for cell number) in PBS for 15 min in the dark at RT and washed twice with PBS. […] Background values of Hoechst and Nile red were subtracted from the RFUs after staining and the ratio RFUNile Red:RFUHoechst was calculated. Data are represented as mean ± SEM. Total RNA was isolated using TriPure (Roche) as recommended by the manufacturer. Reverse transcription and quantitative real-time RT-PCR (QPCR) were performed using Transcriptor RT and SYBR® Green Master Mix (Roche). cDNA was quantitated in a LightCycler® 480 System (Roche Diagnostics, Basel, Switzerland) using primer sets listed in Table S4. Each primer set amplified a single band as determined by gel electrophoresis and melting curve analysis. QPCR data were analyzed using the 2^ΔΔCt method ([Livak and Schmittgen 2001]) relative to ribosomal protein 36b4, normalizing to 0.1% DMSO vehicle. Error bars represent the SEM from four to six biological replicates calculated using standard propagation of error ([Bevington and Robinson 2003]).

**Q.** Which results are given for `N#Cc1c[nH]cc1-c1cccc2c1OC(F)(F)O2` [Fludioxonil]?
**A.** Adipogenesis 3T3-L1 (result in words) (3T3-L1 preadipocytes): Positive; RXRα agonist: EC10, NCGC (RXRα [1]; AC10, ToxCast 2014 release, ref Filer et al. 2014): 1.20 µM; AC50 (RXRα [1]; ToxCast Phase I 2011 release, NA = not active, ref Knudsen et al. 2011, read-out: NCGC RXRα AC50): 2.7 µM; pEC50 (RXRα [1]; gain AC50, ToxCast 2014 release, ref Filer et al. 2014, read-out: RXRα agonist: EC50, NCGC): 5.65; RXRα agonist: EC10, ATG (RXRα [2]; AC10, ToxCast 2014 release): 17.93 µM; pEC50 (RXRα [2]; gain AC50, ToxCast 2014 release, read-out: RXRα agonist: EC50, ATG): 4.63; AC50 (PPARγ): 28 µM; Activation of RXRα (GAL4-hRXRα; COS7, 100 μM through 0.137 μM): activated RXRα; pEC50 (GAL4-hRXRα; COS7, ligands 24 hr, read-out: RXRα agonist: EC50, Fig 4B): 4.84; RXRα agonist: EC10, Fig 4B (GAL4-hRXRα; COS7, computed from EC50): 5.42 µM; AC50 (GAL4-hRXRα; Cos-7 transient transfection): 14.3 µM; Activation COS7 (result in words): RXRα activator (GAL4-hRXRα; Cos-7 transient transfection): RXRα activator; AC50 (C/EBP): 21 µM; AC50 (PPRE): 24 µM; Adipogenic differentiation of mBMSCs (result in words) [3]: could differentiate these uncommitted stem cells into adipocytes
